These results are taken from PMC3312352, “Peptides of the Constant Region of Antibodies Display Fungicidal Activity” (PLoS ONE, 2012).

Where two headings read alike, the source gives them in different places. Ends that are not written are not given here. Peptide text beside a SMILES is read from it.

In one assay the test system is C. glabrata OMNI32. As to conditions: OMNI32, 6 h.
Assay [1] relates to C. albicans SC5314. The conditions noted are these: SC5314, 6 h.
Protocol: (§1) Selected Fc-peptides, or their asds, were preliminarily tested at the concentration of 100 µg/ml. […] Conventional colony forming unit (CFU) assays were performed as previously described [2]. Briefly, yeast cells from a fresh (20 h at 30°C) actively growing colony on Sabouraud Dextrose agar (SDA) (C. albicans, C. glabrata, C. neoformans) or on SDA supplemented with 1% Tween 20 (M. furfur) were suspended in 199 medium. Initial germination was induced in C. albicans cells by incubation for 1 h at 37°C with shaking. Suspensions were properly diluted to obtain approximately 500 fungal cells in 100 µl of distilled water in the presence or absence (control growth) of the synthetic Fc-peptide to be tested. Cell suspensions were incubated at 37°C for 6 h, then plated on SDA or SDA-Tween. CFU were enumerated after 48–72 h of incubation at 30°C, and peptide fungicidal activity was determined as percentage of CFU inhibition, according to the formula 100-(CFU Fc-peptide treated/CFU control growth)×100. Each assay was carried out in triplicate for statistical purposes.
(§2) EC50 was calculated by nonlinear regression analysis using Graph Pad Prism 4.01 software, San Diego, CA, USA.
The subject of assay [2] is C. albicans AIDS68. The conditions noted are these: AIDS68, 6 h.
Protocol: as §1, §2
For a further assay, the system named is C. albicans CA-6. As to conditions: CA-6, 6 h.
The next assay has as its system M. furfur 101. As to conditions: 6 h.
For the next assay, the system named is C. neoformans 6995. The conditions noted are these: 6995, 6 h.
The subject of another assay is C. albicans UM4. The conditions noted are these: UM4, 6 h.
Another assay relates to C. albicans SA40. As to conditions: SA40, 6 h.
In assay [3] the test system is C. albicans AIDS68. As to the kind of experiment: Experimental vaginal candidiasis in mice. In kind it is in vivo, Candida albicans. The conditions noted are these: mice infected with C. albicans AIDS68; 100 µg in PBS at 1, 24, 48 h after challenge.
Assay [4] deals with C. albicans SC5314. The assay can be described thus: CFU assay, in vitro fungicidal activity. The conditions noted are these: for EC50 asd/EC50 T11F / EC50 asd/EC50 N10K: ratio of EC50 values against C. albicans SC5314; for EC50: read-out: EC50 (95% confidence intervals), scalar dilutions, 6 h at 37°C in distilled water, nonlinear regression; for EC50 / % inhibitory activity at 100 µg/ml in comparison to the control growth (water): CFU assay, C. albicans SC5314, triplicate; for % inhibitory activity at 100 µg/ml in comparison to the control growth (water): peptide 100 µg/ml, ~500 cells in 100 µl distilled water, 6 h at 37°C.
Protocol: as §1, §2

Protocol for C. albicans CA-6: as §1, §2
Protocol for C. albicans SA40: as §1, §2
Protocol for C. albicans UM4: as §1, §2
Protocol for C. glabrata OMNI32: as §1, §2
Protocol for C. neoformans 6995: as §1, §2
Protocol for M. furfur 101: as §1, §2

Turning to `CC(C)C[C@H](NC(=O)[C@H](C)NC(=O)[C@H](CCC(=O)O)NC(=O)[C@@H](N)Cc1c[nH]cn1)C(=O)O` [Peptide H4L] (H-HEAL-OH; N-terminus and C-terminus assumed), the “% inhibitory activity at 100 µg/ml in comparison to the control growth (water)” value (“% inhibitory activity at 100 µg/ml” below) with C. glabrata OMNI32 is 80.49%; in the assay with C. albicans SC5314 [1], 84.34%; in the assay with C. albicans AIDS68 [2] it was 59.82%; in the assay on C. albicans CA-6, 57.04%; in the assay on M. furfur 101 it was 92.04%; with C. neoformans 6995, 85.08%. The results for the “% inhibitory activity at 100 µg/ml” value with C. albicans UM4 and in the assay on C. albicans SA40 were 64.63% and 55.99%, respectively.
`OC(Cn1cncn1)(Cn1cncn1)c1ccc(F)cc1F` [fluconazole]: in the assay with C. albicans AIDS68 [3], the “response of vaginal infection to treatment” value is “resistant to treatment”.
Take ACRVDHRGLTF [Peptide T1A]: the “% inhibitory activity at 100 µg/ml” value in the assay with C. albicans SC5314 [1] worked out at 100%. For the same molecule, in the assay with C. albicans SC5314 [4], the “EC50 asd/EC50 T11F” value is 0.48 and the EC50 was found to be 738 nM.
Take AQVSLTCLVK [Peptide N1A]: in the assay with C. albicans SC5314 [1], the response was half-maximal at 587 nM (EC50) and the “% inhibitory activity at 100 µg/ml” value amounted to 100%. In addition, the “EC50 asd/EC50 N10K” value in the assay with C. albicans SC5314 [4] worked out at 0.58.
The corresponding values for NAVSLTCLVK [Peptide Q2A] are 2300 nM, 100% and 2.30.
Consider NQASLTCLVK [Peptide V3A], for which, in the assay with C. albicans SC5314 [1], a half-maximal effect (EC50) was put at 5930 nM. In addition, in the assay on C. albicans SC5314 [4], the “% inhibitory activity at 100 µg/ml” value worked out at 100% and the “EC50 asd/EC50 N10K” value was found to be 5.91.
In the case of NQVALTCLVK [Peptide S4A], in the assay on C. albicans SC5314 [1], the EC50 is 2390 nM and the “% inhibitory activity at 100 µg/ml” value is on record as 100%. In addition, the “EC50 asd/EC50 N10K” value in the assay on C. albicans SC5314 [4] is 2.38.
The corresponding values for NQVSATCLVK [Peptide L5A] are 885 nM, 100% and 0.88.
The corresponding values for NQVSLACLVK [Peptide T6A] are 4880 nM, 100% and 4.86.
On to NQVSLTALVK [Peptide C7A], for which, in the assay with C. albicans SC5314 [1], the EC50 worked out at 54900 nM and the “% inhibitory activity at 100 µg/ml” value was found to be 73.41%. In the assay on C. albicans SC5314 [4], the “EC50 asd/EC50 N10K” value stood at 54.66.
Take NQVSLTCAVK [Peptide L8A]: in the assay on C. albicans SC5314 [1], the EC50 turned out to be 744 nM. For the same molecule, in the assay with C. albicans SC5314 [4], the “% inhibitory activity at 100 µg/ml” value turned out to be 100% and the “EC50 asd/EC50 N10K” value was 0.74.
On to NQVSLTCLAK [Peptide V9A], for which, in the assay with C. albicans SC5314 [1], the response was half-maximal at 1780 nM (EC50) and the “% inhibitory activity at 100 µg/ml” value is 100%. Moreover, in the assay on C. albicans SC5314 [4], the “EC50 asd/EC50 N10K” value is listed as 1.77.
With NQVSLTCLVA [Peptide K10A], the “% inhibitory activity at 100 µg/ml” value in the assay on C. albicans SC5314 [1] stood at 0%.
Take NQVSLTCLVK [Peptide N10K]: the “% inhibitory activity at 100 µg/ml” value in the assay with C. glabrata OMNI32, in the assay on C. albicans SC5314 [1], in the assay with C. albicans AIDS68 [2], in the assay on C. albicans CA-6, with M. furfur 101 and in the assay with C. neoformans 6995 was 100% in each case. The “% inhibitory activity at 100 µg/ml” value in the assay on C. albicans UM4 and in the assay on C. albicans SA40 was 100% throughout.
Take TARVDHRGLTF [Peptide C2A]: in the assay on C. albicans SC5314 [1], the “% inhibitory activity at 100 µg/ml” value amounted to 79.32%. Further, in the assay on C. albicans SC5314 [4], the “EC50 asd/EC50 T11F” value was determined as 21.12 and the EC50 was determined as 32500 nM.
With TCAVDHRGLTF [Peptide R3A], in the assay on C. albicans SC5314 [1], the “% inhibitory activity at 100 µg/ml” value is reported as 97.61%. In addition, in the assay with C. albicans SC5314 [4], the “EC50 asd/EC50 T11F” value turned out to be 8.74 and the EC50 worked out at 13500 nM.
On the same counts, the results for TCRADHRGLTF [Peptide V4A] are 100%, 0.74 and 1130 nM.
On the same counts, the results for TCRVAHRGLTF [Peptide D5A] are 100%, 0.26 and 395 nM.
Turning to TCRVDARGLTF [Peptide H6A], in the assay on C. albicans SC5314 [1], the “% inhibitory activity at 100 µg/ml” value is given as 100%. For the same molecule, in the assay on C. albicans SC5314 [4], the “EC50 asd/EC50 T11F” value is given as 6.76 and the EC50 amounted to 10400 nM.
On to TCRVDHAGLTF [Peptide R7A], for which the “% inhibitory activity at 100 µg/ml” value in the assay on C. albicans SC5314 [1] is on record as 100%. In the assay with C. albicans SC5314 [4], the “EC50 asd/EC50 T11F” value amounted to 7.83 and the EC50 worked out at 12100 nM.
Regarding TCRVDHRALTF [Peptide G8A], the “% inhibitory activity at 100 µg/ml” value in the assay with C. albicans SC5314 [1] is 100%. Moreover, in the assay on C. albicans SC5314 [4], the “EC50 asd/EC50 T11F” value is 1.01 and the EC50 worked out at 1550 nM.
The corresponding values for TCRVDHRGATF [Peptide L9A] are 100%, 1.14 and 1750 nM.
As for TCRVDHRGLAF [Peptide T10A], the “% inhibitory activity at 100 µg/ml” value in the assay on C. albicans SC5314 [1] was 100%. Also, in the assay with C. albicans SC5314 [4], the “EC50 asd/EC50 T11F” value came to 0.55 and the EC50 came out at 850 nM.
On the same counts, the results for TCRVDHRGLTA [Peptide F11A] are 100%, 1.64 and 2520 nM.
Regarding TCRVDHRGLTF [Peptide T11F], the “% inhibitory activity at 100 µg/ml” value with C. glabrata OMNI32, with C. albicans SC5314 [1], in the assay with C. albicans AIDS68 [2], in the assay with C. albicans CA-6, in the assay on M. furfur 101 and with C. neoformans 6995 was 100% each time. In addition, the “% inhibitory activity at 100 µg/ml” value in the assay on C. albicans UM4 and in the assay on C. albicans SA40 was 100% in each case.

What is called EC50 is the concentration giving half of the maximal effect.
